According to US20120029048A1, “PHENYLALKYL N-HYDROXYUREAS FOR TREATING LEUKOTRIENE RELATED PATHOLOGIES” (VIA Pharmaceuticals, Inc., priority 2010, published 2012):

Experiments:
leukotriene B4 (LTB4) = experiment: Ex vivo LTB4 in blood by ELISA, Phase 2 ACS study; parameters: species or system human; conditions: trough drug levels
Procedure: (§1) In this randomized, placebo-controlled study, 191 patients were randomized 3 weeks after an acute coronary syndrome (ACS) to receive 25, 50, or 100 mg N-[3-[5-[(4-fluorophenyl)methyl]-2-thienyl]-1-methyl-2-propynyl]-N-hydroxyurea or placebo qd for 12 weeks. Baseline assessments were performed at the start of treatment and these baseline results were compared with repeat assessments during various follow-up periods during the treatment study. A subset of 93 patients who had undergone a Multidetector (64 slice coronary) Computerized Tomography (MDCT) examination at baseline continued on study medication for a total of 24 weeks and underwent a repeat scan. Patients received a single daily oral dose of 25 mg, 50 mg, or 100 mg of N-[3-[5-[(4-fluorophenyl)methyl]-2-thienyl]-1-methyl-2-propynyl]-N-hydroxyurea or matching placebo by administering 2 capsules as prepared in Example 3 for 12 weeks or 24 weeks. Blood samples for measurement of ex vivo leukotriene B4 (LTB4) and high sensitivity C reactive protein (hsCRP), and urine samples for measurement of urinary leukotriene E4 (LTE4) levels were collected pre-dose on weeks 2, 6 and 12. Blood samples were assayed for ex vivo LTB4 by enzyme-linked immunosorbent assay, and for hsCRP by an immunoturbidimetric method. Urine samples were assayed for LTE4 using Liquid Chromatography with Tandem Mass Spectrometry (LC/MS/MS).

non-calcified plaque = experiment: Serial MDCT coronary plaque imaging, Phase 2 ACS study, 24-week substudy; type: in vivo, human; conditions: all three doses, 24 weeks, compared with placebo
Procedure: In this randomized, placebo-controlled study, 191 patients were randomized 3 weeks after an acute coronary syndrome (ACS) to receive 25, 50, or 100 mg N-[3-[5-[(4-fluorophenyl)methyl]-2-thienyl]-1-methyl-2-propynyl]-N-hydroxyurea or placebo qd for 12 weeks. Baseline assessments were performed at the start of treatment and these baseline results were compared with repeat assessments during various follow-up periods during the treatment study. A subset of 93 patients who had undergone a Multidetector (64 slice coronary) Computerized Tomography (MDCT) examination at baseline continued on study medication for a total of 24 weeks and underwent a repeat scan. For those patients who continued on study medication for a total of 24 weeks, contrast-enhanced CT examination was performed at baseline and after 24 weeks of treatment with a 64-slice scanner (GE LightSpeed VCT; GE Healthcare, USA). Target plaque lesions were defined prospectively as non-calcified plaque with measurable low-density components of <60 HU situated in the proximal or middle portion of either the left main, left anterior ascending, left circumflex or right coronary artery causing at least 20% luminal stenosis. Prior to analysis of results, patients had their MDCT examinations evaluated twice by the same reviewer and also by a second reviewer for evaluation of intraobserver and interobserver variability of measurements.

[1] = system: carotid plaques with rupture-prone histological subtypes; experiment: Relative necrotic core thickness in carotid plaques, Phase 2 CEA study; type: in vivo, human; conditions: rupture-prone plaque subtypes, 100 mg qd 12 weeks, compared with placebo (p<0.02)
Procedure: (§2) In this randomized, double blind, placebo-controlled study, 50 patients with significant carotid artery stenosis (60-90%) were treated once daily for 12 weeks with orally administered 100 mg N-[3-[5-[(4-fluorophenyl)methyl]-2-thienyl]-1-methyl-2-propynyl]-N-hydroxyurea or placebo prior to undergoing CEA, at which time endarterectomy tissue (plaque) was collected and stored for subsequent tissue analysis. Baseline assessments are performed at the start of treatment and these baseline results were compared with repeat assessments during various follow-up periods of treatment. The treatment was conducted for twelve weeks at which time these baseline assessments were performed and compared.
(§3) At the end of 12 weeks treatment with 100 mg of N-[3-[5-[(4-fluorophenyl)methyl]-2-thienyl]-1-methyl-2-propynyl]-N-hydroxyurea, patients underwent CEA, at which time endarterectomy tissue (plaque) was collected, fixed in 10% formalin and paraffin blocks, and stored for subsequent tissue analysis. […] A portion of each of the plaques was also analyzed for inflammatory gene expression after isolation of total RNA and reverse transcription using a TaqMan® High Capacity cDNA assay.
(§4) LTB4, LTE4 and hsCRP biomarker data were assessed using change from baseline comparisons and an ANCOVA was used to compare the treatment groups where the covariate was the baseline value of the outcome measure. […]

hsCRP = hsCRP in blood by immunoturbidimetric method, Phase 2 CEA study; type: in vivo, human; conditions: 100 mg qd oral 12 weeks, CEA patients, compared with placebo (p<0.01)
Procedure: (§5) In this randomized, double blind, placebo-controlled study, 50 patients with significant carotid artery stenosis (60-90%) were treated once daily for 12 weeks with orally administered 100 mg N-[3-[5-[(4-fluorophenyl)methyl]-2-thienyl]-1-methyl-2-propynyl]-N-hydroxyurea or placebo prior to undergoing CEA, at which time endarterectomy tissue (plaque) was collected and stored for subsequent tissue analysis. Baseline assessments are performed at the start of treatment and these baseline results were compared with repeat assessments during various follow-up periods of treatment. The treatment was conducted for twelve weeks at which time these baseline assessments were performed and compared. Patients received a total single daily oral dose of 100 mg of N-[3-[5-[(4-fluorophenyl)methyl]-2-thienyl]-1-methyl-2-propynyl]-N-hydroxyurea or matching placebo by administering 2 capsules as prepared in Example 3 for 12 weeks. Blood samples for measurement of ex vivo LTB4 and hsCRP, and urine samples for measurement of urinary LTE4 levels were collected pre-dose on weeks 2, 6 and 12. […] LTB4, LTE4 and hsCRP biomarker data were assessed using change from baseline comparisons and an ANCOVA was used to compare the treatment groups where the covariate was the baseline value of the outcome measure. […]

[2] = system: high sensitivity C reactive protein (hsCRP); experiment: hsCRP in blood by immunoturbidimetric method, Phase 2 ACS study; type: in vivo, human; conditions: for hsCRP change from baseline, LSMEANS geometric mean (%) / hsCRP change from baseline, Median (25-75): 12 weeks
Procedure: as §1

[3] = system: inflammatory genes IL-6, IL 8, IL-10, MMP9, I-kappa-B, osteopontin; experiment: Inflammatory gene expression in carotid plaques (TaqMan), Phase 2 CEA study; type: in vivo, human; conditions: rupture-prone plaque subtypes, 100 mg qd 12 weeks
Procedure: as §2, §3, §4

LTB4 = experiment: Ex vivo LTB4 in blood by ELISA, Phase 2 CEA study; parameters: species or system human; conditions: 100 mg qd oral 12 weeks, CEA patients, compared with placebo (p<0.0001)
Procedure: as §5

leukotriene E4 (LTE4) = experiment: Urinary LTE4 by LC/MS/MS, Phase 2 ACS study; type: in vivo, human; conditions: all doses (25, 50, 100 mg qd), ACS patients
Procedure: as §1

LTE4 = experiment: Urinary LTE4 by LC/MS/MS, Phase 2 CEA study; type: in vivo, human; conditions: 100 mg qd oral 12 weeks, CEA patients, compared with placebo (p<0.01)
Procedure: as §5

[4] = 12-week main population, 25 mg qd oral
[5] = 12-week main population, 50 mg qd oral
[6] = 12-week main population, 100 mg qd oral
[7] = 24-week CT substudy population, 25 mg qd oral
[8] = 24-week CT substudy population, 50 mg qd oral
[9] = 24-week CT substudy population, 100 mg qd oral

Compound: CC(C#Cc1ccc(Cc2ccc(F)cc2)s1)N(O)C(N)=O (stereo not shown) [VIA-2291, N-[3-[5-[(4-fluorophenyl)methyl]-2-thienyl]-1-methyl-2-propynyl]-N-hydroxyurea]
- patients with approximately 80% inhibition of ex vivo LTB4 (leukotriene B4 (LTB4); 100-mg group): > 90 % of patients
- inhibition of ex vivo LTB4 (leukotriene B4 (LTB4); 100-mg group, ACS patients): approximately 80%
- effect on ex vivo leukotriene LTB4 (leukotriene B4 (LTB4); all doses (25, 50, 100 mg qd), P<0.0001, dose-dependent): significantly reduced
- effect on new plaque lesions in serial MDCT images (non-calcified plaque): reduced
- effect on non-calcified plaque volume in serial MDCT images (non-calcified plaque): reduced
- reduction of relative necrotic core thickness [1]: 21%
- reduction of hsCRP (hsCRP): 2.0 mg/L
- change in hsCRP within group between 12 and 24 weeks ([2]; 100 mg group (P<0.01)): significant reduction
- hsCRP at 12 weeks, Median (25-75) ([2]; 12-week main population, 25 mg qd oral (n = 44)): 1.1 (0.6, 2.5)
- hsCRP at 12 weeks, Median (25-75) ([2]; 12-week main population, 50 mg qd oral (n = 38)): 1.3 (0.4, 2.7)
- hsCRP at 12 weeks, Median (25-75) ([2]; 12-week main population, 100 mg qd oral (n = 38)): 0.6 (0.3, 2.5)
- hsCRP change from baseline, LSMEANS geometric mean (%) [2, 4]: −25.32%
- hsCRP change from baseline, Median (25-75) [2, 4]: −0.2 (−1.1, 0.4)
- hsCRP change from baseline, LSMEANS geometric mean (%) [2, 5]: −29.13%
- hsCRP change from baseline, Median (25-75) [2, 5]: −0.1 (−1.9, 0.1)
- hsCRP change from baseline, LSMEANS geometric mean (%) [2, 6]: −38.99%
- hsCRP change from baseline, Median (25-75) [2, 6]: −0.3 (−0.8, 0.1)
- hsCRP 12 weeks change from baseline, LSMEANS geometric mean (%) [2, 7]: −24.82%
- hsCRP 12 weeks change from baseline, Median (25-75) [2, 7]: −0.1 (−1.5, 0.8)
- hsCRP 24 weeks change from baseline, LSMEANS geometric mean (%) [2, 7]: −32.91%
- hsCRP 24 weeks change from baseline, Median (25-75) [2, 7]: −0.4 (−1.2, 0.3)
- hsCRP at 24 weeks, Median (25-75) [2, 7]: 1.2 (0.7, 2.1)
- hsCRP at 12 weeks, Median (25-75) ([2]; 24-week CT substudy population, 25 mg qd oral (n = 23)): 1.1 (0.6, 2.4)
- hsCRP 12 weeks change from baseline, LSMEANS geometric mean (%) [2, 8]: −22.71%
- hsCRP 12 weeks change from baseline, Median (25-75) [2, 8]: −0.1 (−5.0, 0.6)
- hsCRP 24 weeks change from baseline, LSMEANS geometric mean (%) [2, 8]: −27.05%
- hsCRP 24 weeks change from baseline, Median (25-75) [2, 8]: −0.2 (−3.7, 0.2)
- hsCRP at 24 weeks, Median (25-75) [2, 8]: 1.5 (0.6, 2.6)
- hsCRP at 12 weeks, Median (25-75) ([2]; 24-week CT substudy population, 50 mg qd oral (n = 20)): 1.7 (0.4, 4.3)
- hsCRP 12 weeks change from baseline, LSMEANS geometric mean (%) [2, 9]: −39.05%
- hsCRP 12 weeks change from baseline, Median (25-75) [2, 9]: −0.3 (−2.4, 0.1)
- hsCRP 24 weeks change from baseline, LSMEANS geometric mean (%) [2, 9]: −67.16%
- hsCRP 24 weeks change from baseline, Median (25-75) [2, 9]: −0.4 (−3.9, −0.2)
- hsCRP at 24 weeks, Median (25-75) [2, 9]: 0.3 (0.2, 0.9)
- hsCRP at 12 weeks, Median (25-75) ([2]; 24-week CT substudy population, 100 mg qd oral (n = 18)): 0.6 (0.4, 2.0)
- decrease in hsCRP ([2]; 100-mg group at 24 weeks, compared with placebo (P=0.0002)): 67%
- expression of inflammatory genes IL-6, IL 8, IL-10, MMP9, I-kappa-B, osteopontin [3]: reduction in expression
- reduction of ex vivo LTB4 (LTB4): approximately 90%
- effect on urinary leukotriene LTE4 (leukotriene E4 (LTE4)): significantly reduced
- reduction of urine LTE4 (LTE4): 65%
